In ChEMBL document CHEMBL1201862, “PubChem BioAssay data set” (2004):
Blank lines part the entries; values can stand above or below the molecule they belong to. Activity calls are given as the source filed them.

Assays:
[1] = biological target: Melanin-concentrating hormone receptor 1 (Homo sapiens, UniProt Q99705); test: Late-stage fluorescence-based counterscreen for antagonists of the G-protein coupled receptor 7 (GPR7): cell-based dose response assay to identify antagonists of the melanin-concentrating hormone receptor 1 (MCHR1) Set 6.; type: functional
[2] = biological target: Neuropeptides B/W receptor type 1 (Homo sapiens, UniProt P48145); test: GPR7 antagonist potency, late-stage follow-up, cell-based, fluorescence, dose response, set 6 (AID 588583); type: functional
[3] = biological target: Serine/threonine-protein kinase pim-1 (Homo sapiens, UniProt P11309); type: functional
[4] = biological target: Serine/threonine-protein kinase PAK 4 (Homo sapiens, UniProt O96013); type: functional;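 note: value obtained within a kinome profiling panel in which PAK4 was one of the panel members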
[5] = biological target: Cyclin-dependent kinase 1 (Homo sapiens, UniProt P06493); type: functional;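 note: Kinome-wide panel profiling, with the target listed as panel member CDC2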
[6] = biological target: Tyrosine-protein kinase JAK2 (Homo sapiens, UniProt O60674); type: functional;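 note: JAK2 tested as one member of a kinase panel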
[7] = biological target: Rho-associated protein kinase 1 (Homo sapiens, UniProt Q13464); type: functional;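 note: measured within a broad kinome-wide panel profiling many kinases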
[8] = biological target: MAP kinase-activated protein kinase 3 (Homo sapiens, UniProt Q16644); type: functional;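 note: value comes from a kinome-wide profiling panel in which MAPKAPK3 is one of the panel members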
[9] = biological target: Serine/threonine-protein kinase PLK1 (Homo sapiens, UniProt P53350); type: functional;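 note: PLK1 measured as one member of a kinome-wide profiling panel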
[10] = biological target: Inhibitor of nuclear factor kappa-B kinase subunit beta (Homo sapiens, UniProt O14920); type: functional
[11] = biological target: Ribosomal protein S6 kinase alpha-3 (Homo sapiens, UniProt P51812); type: functional;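 note: measured within a kinome-wide profiling panel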
[12] = biological target: Mitogen-activated protein kinase 8 (Homo sapiens, UniProt P45983); type: functional;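 note: value comes from one member of a kinome-wide kinase profiling panel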
[13] = biological target: Serine/threonine-protein kinase PAK 1 (Homo sapiens, UniProt Q13153); type: functional
[14] = biological target: 5'-AMP-activated protein kinase catalytic subunit alpha-1 (Homo sapiens, UniProt Q13131); type: functional
[15] = biological target: RAC-gamma serine/threonine-protein kinase (Homo sapiens, UniProt Q9Y243); type: functional
[16] = biological target: Serine/threonine-protein kinase Chk1 (Homo sapiens, UniProt O14757); type: functional;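 note: measured as one member of a kinome-wide kinase profiling panel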
Sequence of Serine/threonine-protein kinase Chk1 (O14757 whole entry): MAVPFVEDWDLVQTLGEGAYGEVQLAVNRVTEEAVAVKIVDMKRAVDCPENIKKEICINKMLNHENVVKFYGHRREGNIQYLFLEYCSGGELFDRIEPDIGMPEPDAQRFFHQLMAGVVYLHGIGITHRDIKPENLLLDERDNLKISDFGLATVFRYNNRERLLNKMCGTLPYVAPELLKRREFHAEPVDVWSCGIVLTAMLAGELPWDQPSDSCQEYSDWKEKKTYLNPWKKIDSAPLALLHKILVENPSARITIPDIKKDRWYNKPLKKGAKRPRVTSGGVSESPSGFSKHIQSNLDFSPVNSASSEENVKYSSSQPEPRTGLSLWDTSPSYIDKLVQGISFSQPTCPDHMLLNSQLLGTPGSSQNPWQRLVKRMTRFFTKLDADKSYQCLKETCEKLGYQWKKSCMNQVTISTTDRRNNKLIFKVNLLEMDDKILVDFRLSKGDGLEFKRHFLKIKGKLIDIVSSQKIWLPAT

[17] = biological target: Cyclin-dependent kinase 5 (Homo sapiens, UniProt Q00535); type: functional;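 note: CDK5 measured as one member of a kinase profiling panel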
Sequence of Cyclin-dependent kinase 5 (Q00535 whole entry): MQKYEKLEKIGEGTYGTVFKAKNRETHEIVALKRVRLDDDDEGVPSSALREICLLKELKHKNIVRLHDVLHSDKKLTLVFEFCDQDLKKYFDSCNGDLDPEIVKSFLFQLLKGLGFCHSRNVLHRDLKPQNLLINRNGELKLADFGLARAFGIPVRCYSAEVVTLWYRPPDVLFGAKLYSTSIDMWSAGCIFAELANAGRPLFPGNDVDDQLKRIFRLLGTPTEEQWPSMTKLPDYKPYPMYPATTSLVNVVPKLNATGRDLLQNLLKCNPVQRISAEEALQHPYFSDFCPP

[18] = biological target: Proto-oncogene tyrosine-protein kinase Src (Homo sapiens, UniProt P12931); type: functional;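 note: SRC entry within a kinome-wide kinase profiling panel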
[19] = biological target: Insulin receptor (Homo sapiens, UniProt P06213); type: functional;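 note: insulin receptor kinase tested as one member of a kinome-wide kinase panel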
[20] = biological target: Serine/threonine-protein kinase PLK4 (Homo sapiens, UniProt O00444); type: functional;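 note: PLK4 measured as one member of a kinome-wide kinase profiling panel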
[21] = biological target: Serine/threonine-protein kinase PLK3 (Homo sapiens, UniProt Q9H4B4); type: functional
[22] = biological target: Casein kinase II subunit alpha (Homo sapiens, UniProt P68400); type: functional
Sequence of Casein kinase II subunit alpha (P68400 whole entry): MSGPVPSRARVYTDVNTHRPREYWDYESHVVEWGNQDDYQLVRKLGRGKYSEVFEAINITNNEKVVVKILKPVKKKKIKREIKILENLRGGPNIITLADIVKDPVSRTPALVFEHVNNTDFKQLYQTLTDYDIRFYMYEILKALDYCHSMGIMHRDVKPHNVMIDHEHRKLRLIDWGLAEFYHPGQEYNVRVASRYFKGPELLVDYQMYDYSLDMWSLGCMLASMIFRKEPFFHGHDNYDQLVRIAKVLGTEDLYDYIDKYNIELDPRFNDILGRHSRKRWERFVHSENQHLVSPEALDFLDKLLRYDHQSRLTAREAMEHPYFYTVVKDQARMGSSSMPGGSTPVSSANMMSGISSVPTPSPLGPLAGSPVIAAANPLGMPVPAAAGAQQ

[23] = biological target: Serine/threonine-protein kinase Nek2 (Homo sapiens, UniProt P51955); type: functional
[24] = biological target: Tyrosine-protein kinase JAK3 (Homo sapiens, UniProt P52333); type: functional
[25] = biological target: Dual specificity tyrosine-phosphorylation-regulated kinase 1A (Homo sapiens, UniProt Q13627); type: functional;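 note: measured against DYRK1A as one member of a broad kinome profiling panel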
[26] = biological target: Serine/threonine-protein kinase 3 (Homo sapiens, UniProt Q13188); type: functional;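 note: measured as one member of a kinome-wide kinase panel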
[27] = biological target: Glycogen synthase kinase-3 alpha (Homo sapiens, UniProt P49840); type: functional;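 note: GSK3A result taken from a broad kinome-wide kinase panel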
[28] = biological target: Receptor tyrosine-protein kinase erbB-4 (Homo sapiens, UniProt Q15303); type: functional;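 note: ERBB4 member of a kinome-wide kinase profiling panel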
[29] = biological target: Interleukin-1 receptor-associated kinase 4 (Homo sapiens, UniProt Q9NWZ3); type: functional
[30] = biological target: Glycogen synthase kinase-3 beta (Homo sapiens, UniProt P49841); type: functional;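 note: value comes from a broad kinome profiling panel, with GSK3B as the panel member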
Sequence of Glycogen synthase kinase-3 beta (P49841 whole entry): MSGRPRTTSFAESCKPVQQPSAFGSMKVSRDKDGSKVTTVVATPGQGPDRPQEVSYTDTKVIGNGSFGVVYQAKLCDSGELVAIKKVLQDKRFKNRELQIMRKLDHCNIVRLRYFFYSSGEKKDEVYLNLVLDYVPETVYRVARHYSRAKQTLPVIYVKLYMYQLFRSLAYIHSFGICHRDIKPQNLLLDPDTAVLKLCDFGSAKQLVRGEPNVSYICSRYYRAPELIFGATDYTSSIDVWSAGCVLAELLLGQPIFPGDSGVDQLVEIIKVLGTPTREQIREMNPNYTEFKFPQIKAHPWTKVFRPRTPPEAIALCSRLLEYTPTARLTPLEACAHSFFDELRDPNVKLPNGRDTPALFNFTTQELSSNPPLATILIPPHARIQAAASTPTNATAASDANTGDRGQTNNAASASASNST

[31] = biological target: MAP kinase-activated protein kinase 2 (Homo sapiens, UniProt P49137); type: functional;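 note: measured as one member of a kinome-wide kinase panel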
[32] = biological target: Ribosomal protein S6 kinase beta-1 (Homo sapiens, UniProt P23443); type: functional;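 note: measured as one member of a kinome-wide profiling panel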
[33] = biological target: Aurora kinase A (Homo sapiens, UniProt O14965); type: functional;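 note: value from the Navigating the Kinome kinase panel profiling, panel entry STK6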
Sequence of Aurora kinase A (O14965 whole entry): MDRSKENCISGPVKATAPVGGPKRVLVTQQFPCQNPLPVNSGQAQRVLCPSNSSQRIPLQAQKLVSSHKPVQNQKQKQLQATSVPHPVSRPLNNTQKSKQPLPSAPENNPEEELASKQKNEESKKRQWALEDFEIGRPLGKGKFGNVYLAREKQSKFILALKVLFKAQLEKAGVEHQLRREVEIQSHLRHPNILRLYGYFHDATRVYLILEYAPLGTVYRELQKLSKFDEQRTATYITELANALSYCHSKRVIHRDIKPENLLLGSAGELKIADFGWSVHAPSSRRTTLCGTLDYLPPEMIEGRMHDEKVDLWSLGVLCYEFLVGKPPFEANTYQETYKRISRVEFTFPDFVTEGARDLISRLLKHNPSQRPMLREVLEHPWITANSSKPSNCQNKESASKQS

[34] = biological target: Death-associated protein kinase 3 (Homo sapiens, UniProt O43293); type: functional;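 note: measured as one member of a kinome-wide profiling panel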
[35] = biological target: Mitogen-activated protein kinase 1 (Homo sapiens, UniProt P28482); type: functional
[36] = biological target: Fibroblast growth factor receptor 1 (Homo sapiens, UniProt P11362); type: functional
[37] = biological target: Vascular endothelial growth factor receptor 3 (Homo sapiens, UniProt P35916); type: functional;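 note: value from a kinome-wide profiling panel, with FLT4 as the panel member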
[38] = biological target: Protein kinase C delta type (Homo sapiens, UniProt Q05655); type: functional
[39] = biological target: Protein kinase C zeta type (Homo sapiens, UniProt Q05513); type: functional;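 note: measured as one member of a broad kinase profiling panel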
[40] = biological target: Mitogen-activated protein kinase 12 (Homo sapiens, UniProt P53778); type: functional;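 note: measured as one member of a kinome-wide kinase profiling panel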
[41] = biological target: Mitogen-activated protein kinase 9 (Homo sapiens, UniProt P45984); type: functional;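 note: value from a kinome panel profiling assay, MAPK9 panel entry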
[42] = biological target: Inhibitor of nuclear factor kappa-B kinase subunit alpha (Homo sapiens, UniProt O15111); type: functional
Sequence of Inhibitor of nuclear factor kappa-B kinase subunit alpha (O15111 whole entry, the tested form may be a part): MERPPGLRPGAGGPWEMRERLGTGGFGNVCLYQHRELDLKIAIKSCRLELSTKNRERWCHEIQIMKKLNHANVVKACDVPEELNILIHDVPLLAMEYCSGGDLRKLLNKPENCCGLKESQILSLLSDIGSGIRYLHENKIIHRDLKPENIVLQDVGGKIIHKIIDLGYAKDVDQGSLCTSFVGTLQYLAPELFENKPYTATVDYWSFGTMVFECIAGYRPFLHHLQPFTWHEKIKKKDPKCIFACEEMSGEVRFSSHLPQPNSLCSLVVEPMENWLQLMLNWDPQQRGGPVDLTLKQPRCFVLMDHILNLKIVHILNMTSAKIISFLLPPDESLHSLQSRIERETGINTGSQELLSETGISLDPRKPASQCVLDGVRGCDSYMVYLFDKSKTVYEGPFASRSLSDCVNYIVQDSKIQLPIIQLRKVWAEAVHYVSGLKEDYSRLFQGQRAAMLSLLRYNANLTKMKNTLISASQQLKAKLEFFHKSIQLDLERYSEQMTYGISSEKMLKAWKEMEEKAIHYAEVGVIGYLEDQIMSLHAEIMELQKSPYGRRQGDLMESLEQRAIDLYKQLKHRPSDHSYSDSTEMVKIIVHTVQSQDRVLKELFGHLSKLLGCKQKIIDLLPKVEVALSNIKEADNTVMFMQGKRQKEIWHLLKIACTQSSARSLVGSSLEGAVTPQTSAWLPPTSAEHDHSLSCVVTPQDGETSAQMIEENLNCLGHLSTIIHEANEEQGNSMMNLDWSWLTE

[43] = biological target: LIM domain kinase 1 (Homo sapiens, UniProt P53667); test: Navigating the Kinome. Panel member name: LIMK1; type: functional
[44] = biological target: cAMP-dependent protein kinase catalytic subunit alpha (Homo sapiens, UniProt P17612); type: functional
[45] = biological target: BDNF/NT-3 growth factors receptor (Homo sapiens, UniProt Q16620); type: functional;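 note: NTRK2 measured as one member of a broad kinome-wide kinase profiling panel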
[46] = biological target: MAP/microtubule affinity-regulating kinase 3 (Homo sapiens, UniProt P27448); type: functional;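 note: MARK3 affinity measured as one member of a kinome panel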
[47] = biological target: Calcium/calmodulin-dependent protein kinase type 1 (Homo sapiens, UniProt Q14012); type: functional
[48] = biological target: Serine/threonine-protein kinase MRCK alpha (Homo sapiens, UniProt Q5VT25); type: functional
[49] = biological target: Casein kinase I isoform delta (Homo sapiens, UniProt P48730); type: functional;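 note: measured as one member (CSNK1D) of a kinome panel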
Sequence of Casein kinase I isoform delta (P48730 whole entry, canonical isoform): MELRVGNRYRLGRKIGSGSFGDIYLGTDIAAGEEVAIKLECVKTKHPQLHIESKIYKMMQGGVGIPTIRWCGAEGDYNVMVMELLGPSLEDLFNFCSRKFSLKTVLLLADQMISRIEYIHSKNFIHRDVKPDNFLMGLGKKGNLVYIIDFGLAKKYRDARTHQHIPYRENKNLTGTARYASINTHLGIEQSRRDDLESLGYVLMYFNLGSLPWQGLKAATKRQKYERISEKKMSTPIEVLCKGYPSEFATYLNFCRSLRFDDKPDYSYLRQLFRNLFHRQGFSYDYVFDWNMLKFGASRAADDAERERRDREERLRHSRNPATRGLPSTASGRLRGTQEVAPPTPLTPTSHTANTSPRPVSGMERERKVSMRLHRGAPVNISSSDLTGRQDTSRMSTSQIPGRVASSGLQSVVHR

[50] = biological target: 3-phosphoinositide-dependent protein kinase 1 (Homo sapiens, UniProt O15530); type: functional;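 note: value comes from the Navigating the Kinome panel, PDPK1 member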
[51] = biological target: Serine/threonine-protein kinase Chk2 (Homo sapiens, UniProt O96017); type: functional;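 note: CHEK2 entry within a kinome-wide screening panel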
[52] = biological target: Tyrosine-protein kinase Blk (Homo sapiens, UniProt P51451); type: functional;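 note: obtained as one member of a kinome-wide kinase assay panel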
[53] = biological target: Aurora kinase B (Homo sapiens, UniProt Q96GD4); type: functional
Sequence of Aurora kinase B (Q96GD4 whole entry): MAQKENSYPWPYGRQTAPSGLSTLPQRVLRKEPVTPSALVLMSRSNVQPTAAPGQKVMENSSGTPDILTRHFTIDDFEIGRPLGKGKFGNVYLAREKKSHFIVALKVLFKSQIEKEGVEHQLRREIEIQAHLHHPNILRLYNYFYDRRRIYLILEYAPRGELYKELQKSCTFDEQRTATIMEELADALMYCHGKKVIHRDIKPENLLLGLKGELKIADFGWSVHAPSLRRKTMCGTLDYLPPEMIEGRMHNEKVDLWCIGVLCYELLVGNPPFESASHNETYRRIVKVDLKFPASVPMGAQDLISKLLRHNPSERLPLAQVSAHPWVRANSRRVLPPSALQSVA

[54] = biological target: RAC-alpha serine/threonine-protein kinase (Homo sapiens, UniProt P31749); type: functional;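 note: AKT1 affinity measured as one member of a kinome-wide kinase profiling panel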
[55] = biological target: Protein kinase C gamma type (Homo sapiens, UniProt P05129); type: functional
[56] = biological target: Vascular endothelial growth factor receptor 2 (Homo sapiens, UniProt P35968); type: functional
Sequence of Vascular endothelial growth factor receptor 2 (P35968 whole entry): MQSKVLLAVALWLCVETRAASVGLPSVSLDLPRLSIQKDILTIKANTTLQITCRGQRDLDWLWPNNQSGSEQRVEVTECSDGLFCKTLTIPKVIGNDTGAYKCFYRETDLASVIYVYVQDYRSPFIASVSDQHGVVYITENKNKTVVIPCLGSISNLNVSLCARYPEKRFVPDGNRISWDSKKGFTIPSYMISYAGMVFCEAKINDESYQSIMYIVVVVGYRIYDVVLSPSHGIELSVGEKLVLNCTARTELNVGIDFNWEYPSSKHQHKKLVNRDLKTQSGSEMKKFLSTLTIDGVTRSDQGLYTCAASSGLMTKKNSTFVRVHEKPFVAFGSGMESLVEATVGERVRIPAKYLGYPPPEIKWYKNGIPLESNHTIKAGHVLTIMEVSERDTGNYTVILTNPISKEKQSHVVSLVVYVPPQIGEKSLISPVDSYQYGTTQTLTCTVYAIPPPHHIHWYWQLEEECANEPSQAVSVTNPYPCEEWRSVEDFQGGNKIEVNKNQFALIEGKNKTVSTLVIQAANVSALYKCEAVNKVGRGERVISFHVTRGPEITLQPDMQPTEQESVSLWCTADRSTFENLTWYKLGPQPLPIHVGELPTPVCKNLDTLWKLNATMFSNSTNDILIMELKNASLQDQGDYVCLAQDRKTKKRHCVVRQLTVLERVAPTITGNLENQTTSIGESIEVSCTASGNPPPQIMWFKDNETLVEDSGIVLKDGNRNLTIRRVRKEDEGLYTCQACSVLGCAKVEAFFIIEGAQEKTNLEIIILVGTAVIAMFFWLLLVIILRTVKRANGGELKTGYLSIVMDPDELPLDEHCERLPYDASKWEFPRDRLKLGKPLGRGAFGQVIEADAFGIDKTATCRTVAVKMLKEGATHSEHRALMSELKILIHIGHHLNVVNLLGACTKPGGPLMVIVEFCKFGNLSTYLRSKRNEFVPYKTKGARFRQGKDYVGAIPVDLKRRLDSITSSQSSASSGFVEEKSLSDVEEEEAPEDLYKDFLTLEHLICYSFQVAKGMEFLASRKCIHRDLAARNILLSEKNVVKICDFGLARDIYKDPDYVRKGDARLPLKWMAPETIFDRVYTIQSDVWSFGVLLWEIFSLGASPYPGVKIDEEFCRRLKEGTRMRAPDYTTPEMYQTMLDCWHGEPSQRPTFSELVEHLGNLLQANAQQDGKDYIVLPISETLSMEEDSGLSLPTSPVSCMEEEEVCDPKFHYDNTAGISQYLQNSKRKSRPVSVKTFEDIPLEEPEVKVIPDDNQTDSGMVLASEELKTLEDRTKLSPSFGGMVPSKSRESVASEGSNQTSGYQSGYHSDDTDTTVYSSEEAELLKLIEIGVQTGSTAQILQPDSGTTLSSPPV

[57] = biological target: T1, High affinity choline transporter 1 (Homo sapiens, UniProt Q9GZV3); test: CHT inhibitors, dose response, cell-based, 5-point CRC, membrane potential dye (AID 504840); type: functional
T1 sequence (Q9GZV3 whole entry): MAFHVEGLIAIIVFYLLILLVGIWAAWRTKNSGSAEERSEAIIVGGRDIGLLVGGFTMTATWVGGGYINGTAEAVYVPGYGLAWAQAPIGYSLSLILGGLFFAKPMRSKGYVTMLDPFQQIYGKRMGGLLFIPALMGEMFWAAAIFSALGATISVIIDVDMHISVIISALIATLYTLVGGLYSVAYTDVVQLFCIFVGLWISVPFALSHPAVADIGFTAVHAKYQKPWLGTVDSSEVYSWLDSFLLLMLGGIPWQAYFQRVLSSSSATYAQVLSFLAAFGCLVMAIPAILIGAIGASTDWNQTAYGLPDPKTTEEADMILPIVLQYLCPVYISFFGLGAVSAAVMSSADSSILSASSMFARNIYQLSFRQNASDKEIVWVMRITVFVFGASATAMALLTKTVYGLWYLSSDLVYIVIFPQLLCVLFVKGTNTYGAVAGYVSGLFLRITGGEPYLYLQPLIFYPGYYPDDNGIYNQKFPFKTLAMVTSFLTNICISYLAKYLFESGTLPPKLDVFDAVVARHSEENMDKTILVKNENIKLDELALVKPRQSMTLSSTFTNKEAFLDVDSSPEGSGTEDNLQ

[58] = cytotoxicity toward NIH3T3 fibroblasts, dose response, counter-screen, cell-based, ATP luminescence, mouse fibroblasts (AID 2010); type: functional;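 note: cells exposed to compound for about 90 hours before reading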
[59] = biological target: T1, High affinity choline transporter 1; test: CHT inhibitors, dose response, cell-based, 10-point CRC, membrane potential dye (AID 588401); type: functional;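 note: membrane potential dye fluorescence of choline-evoked depolarization via CHT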
[60] = inhibitors of intracellular T. cruzi replication, confirmation, NIH3T3 host cells, beta-gal luminescence (AID 2044); type: functional, cell-based;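 note: intracellular parasites grown in NIH/3T3 mouse fibroblasts as host cells; luminescent beta-galactosidase reporter signal from transgenic T. cruzi replicating inside host cells; inhibitors lower the luminescence signal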

- IC50 [1]: 0.821 µM (active)
- IC50 [2]: 0.821 µM (active)
SMILES: Cc1ccccc1C(C#N)c1c(Cl)cnn(Cc2cccc3ccccc23)c1=O (stereo not given)

- Ki [3]: 1.26 µM (active)
- Ki [4]: > 5.01 µM (inactive)
- Ki [5]: 3.98 µM (active)
- Ki [6]: 1 µM (active)
- Ki [7]: 2.51 µM (active)
- Ki [8]: 1.58 µM (active)
- Ki [9]: > 7.94 µM (inactive)
- Ki [10]: > 3.16 µM (inactive)
- Ki [11]: 3.98 µM (active)
- Ki [12]: > 3.16 µM (inactive)
- Ki [13]: 1.26 µM (active)
- Ki [14]: > 10 µM (inactive)
- Ki [15]: > 10 µM (inactive)
- Ki [16]: > 7.94 µM (inactive)
- Ki [17]: > 10 µM (inactive)
- Ki [18]: > 5.01 µM (inactive)
- Ki [19]: > 5.01 µM (inactive)
- Ki [20]: > 3.98 µM (inactive)
- Ki [21]: > 7.94 µM (inactive)
- Ki [22]: > 6.31 µM (inactive)
- Ki [23]: > 10 µM (inactive)
- Ki [24]: 0.794 µM (active)
- Ki [25]: > 6.31 µM (inactive)
- Ki [26]: 3.98 µM (active)
- Ki [27]: > 7.94 µM (inactive)
- Ki [28]: 1.58 µM (active)
- Ki [29]: 3.98 µM (active)
- Ki [30]: > 6.31 µM (inactive)
- Ki [31]: 3.98 µM (active)
- Ki [32]: 1.26 µM (active)
- Ki [33]: > 6.31 µM (inactive)
- Ki [35]: > 7.94 µM (inactive)
- Ki [36]: > 5.01 µM (inactive)
- Ki [37]: > 6.31 µM (inactive)
- Ki [38]: 0.631 µM (active)
- Ki [39]: 1.26 µM (active)
- Ki [40]: > 6.31 µM (inactive)
- Ki [41]: > 3.98 µM (inactive)
- Ki [42]: 1.26 µM (active)
- Ki [43]: 2 µM (active)
- Ki [44]: > 7.94 µM (inactive)
- Ki [45]: 2 µM (active)
- Ki [46]: > 6.31 µM (inactive)
- Ki [47]: 3.98 µM (active)
- Ki [48]: 2.51 µM (active)
- Ki [49]: > 7.94 µM (inactive)
- Ki [50]: > 3.98 µM (inactive)
- Ki [51]: > 10 µM (inactive)
- Ki [52]: 1 µM (active)
- Ki [53]: > 6.31 µM (inactive)
- Ki [54]: 3.98 µM (active)
- Ki [55]: 2.51 µM (active)
- Ki [56]: > 7.94 µM (inactive)
SMILES: CCCCCCCCCCCCOc1ccc(NC(=N)N)cc1NC(=N)N [LAUROGUADINE]
- Ki [34]: 0.316 µM (active)

SMILES: CCOCCCN(C)C1CCN(C(=O)c2oc3ccccc3c2NC(=O)c2ccc(F)cc2)CC1
- IC50 [57]: 6.85 µM (active)
- EC50 [58]: > 60 µM (not active)
- IC50 [59]: 6.69 µM (active)
- EC50 [60]: 0.267 µM (active)
